Reference: US20240099214A1, “PLANT DEFENCE GENE EXPRESSION” (UPL Corporation Limited, priority 2021, published 2024)

Tests used:
[1] = system: E3 Ubiquitin-protein ligase march3 (gene 2, Solyc01g079530.2); experiment: qRT-PCR expression of gene 2 in tomato leaves; type: in vivo, Tomato ecotype corbarino; set-up: key: relative expression normalized to a-tubulin housekeeping gene
Method: (§1) Tomato ecotype “corbarino” reported to be susceptible to TSWV infection was used in the experiment. Plants were grown in pots in a climatic chamber with a photoperiod of 16/8 hour at 25° C.
(§2) The viral strain (TSWV PV PV-0393) was utilized in the experiment. The virus was mechanically inoculated and propagated on tomato “corbarino”. The inoculum was prepared in an ice-cooled mortar grounding 1 gr of infected tomato tissue in 10 ml of Na-phosphate buffer 0.01M. The fresh prepared inoculum was stored in ice before use. Tomato plants at BBCH16 were dusted with Carborundum 600 mesh and selected leaves were rubbed with some droplets of inoculum. After 5 min. plants were sprayed with sterile water to remove the excess of inoculum and preserve the cell turgor.
(§3) Four treatments were compared: i) Mock inoculated; ii) TSWV; iii) 0.25% Laminarin; iv) 0.25% Laminarin+TSWV. In the last treatment the virus was inoculated 24 hrs after the laminarin application.
(§4) Total RNA was extracted from systemic infected tomato leaves by using the Quick-RNA Plant Kit (Zymo Research) following the manufacturer instructions. The extractions were carried out using three plants after 12 h, 24 h, 48 h, 72 h, 7 days after inoculation. Leaves were instantly frozen in liquid nitrogen after cutting to avoid any deterioration of the sample as well as any defense reaction. The RNA concentration was quantified by measuring the absorbance at 260 nm using a Nanodrop 2000 (Thermofisher). The purity of all of the RNA samples was assessed at an absorbance ratio of OD260/280 and OD260/230, while its structural integrity was checked by agarose gel electrophoresis. Only high-quality RNA with OD 260/280 and OD 260/230>2 was used for subsequent steps. Single-stranded cDNA was synthesized from 1 μg of total RNA using an iScript™ Select cDNA Synthesis Kit and random hexamers as primers (Bio-Rad, Milan, Italy), according to the manufacturer's instructions. Three biological replicates were created from the 3 leaves collected to test 15 genes. Alpha tubulin was used as reference gene.
(§5) qPCR reactions were performed with BioRad (Applied Biosystems, Foster City, CA, USA) using SYBR R Green. Each reaction was performed in 20 μl containing 10 μl of 2× Power SYBR Green PCR Master Mix (Life Technologies), 0.2-0.3 μM primers and cDNA samples diluted 1:20. Each qPCR reaction was performed in triplicate. Reactions were run using the cycling parameter described previously (Reid et al., 2006) and the qPCR data were analyzed by the Ct method (Pfaffl, 2001). In order to analyze the qPCR data, a-tubulin gene was used as housekeeping to determine the relative expression level of the other genes analyzed in this work. For the determination of qPCR efficiency of each primer pairs, a standard curve was performed using the following cDNA dilutions: 1:4, 1:16, 1:64; 1:256 and 1:1024. Every measurement was made in triplicate. The corresponding qPCR efficiencies (E) were calculated for every primer pair with the software 7300 System SDS software (Applied Biosystems, Foster City, CA, USA) according to the equation E=(10−1/slope−1)×100 (Rutledge and Stewart, 2008).
(§6) The significance of the differences between the gene expressions levels were compared by one-way ANOVA (p=0.01) and the means were separated by Tukey post-hoc test using SPSS ver.26 ([…]).

[2] = system: Subtilisin-like protease-like (gene 9, Solyc01g087800.2); experiment: qRT-PCR expression of gene 9 in tomato leaves; type: in vivo, Tomato ecotype corbarino; set-up: key to RQ1 / RQ2 / RQ3 / RQ mean: relative expression normalized to a-tubulin housekeeping gene
Method: as §1, §2, §3, §4, §5, §6

laminarin showed an RQ1 ([1]; 12 hr, Laminarin + virus) of 13.056, an RQ2 ([1]; 12 hr, Laminarin + virus) of 23.403 and an RQ3 ([1]; 12 hr, Laminarin + virus) of 12.079. The RQ mean ([1]; 12 hr, Laminarin + virus) was 16.179, the RQ1 ([1]; 12 hr, Laminarin alone) was 13.140 and the RQ2 ([1]; 12 hr, Laminarin alone) was 19.586. For the same substance, the RQ3 ([1]; 12 hr, Laminarin alone) was 10.706, the RQ mean ([1]; 12 hr, Laminarin alone) was 14.477 and the RQ1 ([1]; 24 hr, Laminarin + virus) was 11.700. The RQ2 ([1]; 24 hr, Laminarin + virus) was 13.596, the RQ3 ([1]; 24 hr, Laminarin + virus) was 12.341 and the RQ mean ([1]; 24 hr, Laminarin + virus) was 12.546. It also gave an RQ1 ([1]; 24 hr, Laminarin alone) of 13.152, an RQ2 ([1]; 24 hr, Laminarin alone) of 13.329 and an RQ3 ([1]; 24 hr, Laminarin alone) of 14.033. The RQ mean ([1]; 24 hr, Laminarin alone) was 13.505, the RQ1 ([1]; 48 hr, Laminarin + virus) was 24.083 and the RQ2 ([1]; 48 hr, Laminarin + virus) was 18.519. It also gave an RQ3 ([1]; 48 hr, Laminarin + virus) of 21.352, an RQ mean ([1]; 48 hr, Laminarin + virus) of 21.318 and an RQ1 ([1]; 48 hr, Laminarin alone) of 27.467. For the same substance, the RQ2 ([1]; 48 hr, Laminarin alone) was 17.321, the RQ3 ([1]; 48 hr, Laminarin alone) was 23.298 and the RQ mean ([1]; 48 hr, Laminarin alone) was 22.695. The RQ1 ([1]; 72 hr, Laminarin + virus) was 28.726, the RQ2 ([1]; 72 hr, Laminarin + virus) was 29.558 and the RQ3 ([1]; 72 hr, Laminarin + virus) was 37.336. It also gave an RQ mean ([1]; 72 hr, Laminarin + virus) of 31.873, an RQ1 ([1]; 72 hr, Laminarin alone) of 29.447 and an RQ2 ([1]; 72 hr, Laminarin alone) of 23.000. It also gave an RQ3 ([1]; 72 hr, Laminarin alone) of 53.007, an RQ mean ([1]; 72 hr, Laminarin alone) of 35.151 and an RQ1 ([2]; 12 hr, Laminarin + virus) of 0.9838. The RQ2 ([2]; 12 hr, Laminarin + virus) was 0.8556, the RQ3 ([2]; 12 hr, Laminarin + virus) was 10.797 and the RQ mean ([2]; 12 hr, Laminarin + virus) was 0.9730. It also gave an RQ1 ([2]; 12 hr, Laminarin alone) of 0.8527, an RQ2 ([2]; 12 hr, Laminarin alone) of 0.8398 and an RQ3 ([2]; 12 hr, Laminarin alone) of 10.240. For the same substance, the RQ mean ([2]; 12 hr, Laminarin alone) was 0.9055, the RQ1 ([2]; 24 hr, Laminarin + virus) was 0.8394 and the RQ2 ([2]; 24 hr, Laminarin + virus) was 10.098. For the same substance, the RQ3 ([2]; 24 hr, Laminarin + virus) was 11.565, the RQ mean ([2]; 24 hr, Laminarin + virus) was 10.019 and the RQ1 ([2]; 24 hr, Laminarin alone) was 13.867. For the same substance, the RQ2 ([2]; 24 hr, Laminarin alone) was 0.9303, the RQ3 ([2]; 24 hr, Laminarin alone) was 10.466 and the RQ mean ([2]; 24 hr, Laminarin alone) was 11.212. For the same substance, the “gene 9 expression compared to TSWV treatment” value ([2]; 48 hr, 0.25% laminarin + TSWV inoculated 24 hrs later) was “inverted”, the “gene 9 expression compared to TSWV treatment” value ([2]; 48 hr, 0.25% laminarin alone) was “inverted” and the RQ1 ([2]; 48 hr, Laminarin + virus) was 15.088. For the same substance, the RQ2 ([2]; 48 hr, Laminarin + virus) was 17.637, the RQ3 ([2]; 48 hr, Laminarin + virus) was 13.474 and the RQ mean ([2]; 48 hr, Laminarin + virus) was 15.400. For the same substance, the RQ1 ([2]; 48 hr, Laminarin alone) was 16.481, the RQ2 ([2]; 48 hr, Laminarin alone) was 15.436 and the RQ3 ([2]; 48 hr, Laminarin alone) was 13.847. It also gave an RQ mean ([2]; 48 hr, Laminarin alone) of 15.255, an RQ1 ([2]; 72 hr, Laminarin + virus) of 0.9998 and an RQ2 ([2]; 72 hr, Laminarin + virus) of 10.127. The RQ3 ([2]; 72 hr, Laminarin + virus) was 0.9578, the RQ mean ([2]; 72 hr, Laminarin + virus) was 0.9901 and the RQ1 ([2]; 72 hr, Laminarin alone) was 16.204. The RQ2 ([2]; 72 hr, Laminarin alone) was 0.7923, the RQ3 ([2]; 72 hr, Laminarin alone) was 18.354 and the RQ mean ([2]; 72 hr, Laminarin alone) was 14.160. The “gene 9 expression” value ([2]; 72 hr, after the treatment with laminarin) was “no clear overexpression”.
